In ChEMBL document CHEMBL1122452, “Mitomycin C analogues with secondary amines at position 7” (J Med Chem, 1983):

What was measured:
P388 [1] = experiment: Maximum % T/C against P-388 murine leukemia cells in mice.; assay type: functional, Mus musculus
P388 [2] = experiment: Maximum % T/C with mitomycin C against P-388 murine leukemia cells in mice.; assay type: functional, Mus musculus
P388 [3] = experiment: Minimum effective dose required for antitumor activity against P-388 murine leukemia cells in mice.; assay type: functional; conditions: Mus musculus, read-out: MED
P388 [4] = experiment: Optimal dose required for antitumor activity against P-388 murine leukemia cells in mice.; assay type: functional, Mus musculus
[5] = E1/2 value related to the saturated calomal electrode.; assay type: ADME; parameters: unit not given here
P388 [6] = experiment: Leukopenia % change in WBC at optimal dose on 3rd day.; assay type: functional, Mus musculus
B16 [7] = experiment: Average weight change after ip administration of a dose of 1 mg/kg/day in B-16 melanoma in mice; assay type: functional, Mus musculus; conditions: route intraperitoneal
B16 [8] = experiment: Average weight change after ip administration of a dose of 2 mg/kg/day in B-16 melanoma in mice; assay type: functional, Mus musculus; conditions: route intraperitoneal
B16 [9] = experiment: Average weight change after ip administration of a dose of 3 mg/kg/day in B-16 melanoma in mice; assay type: functional, Mus musculus; conditions: route intraperitoneal
B16 [10] = experiment: Average weight change after ip administration of a dose of 4 mg/kg/day in B-16 melanoma in mice; assay type: functional, Mus musculus; conditions: route intraperitoneal
B16 [11] = experiment: Tumor free survivors on 62nd day after ip administration of a dose of 1 mg/kg/day in B-16 melanoma in mice; assay type: functional, Mus musculus; conditions: route intraperitoneal
B16 [12] = experiment: Tumor free survivors on 62nd day after ip administration of a dose of 2 mg/kg/day in B-16 melanoma in mice; assay type: functional, Mus musculus; conditions: route intraperitoneal
B16 [13] = experiment: Tumor free survivors on 62nd day after ip administration of a dose of 3 mg/kg/day in B-16 melanoma in mice; assay type: functional, Mus musculus; conditions: route intraperitoneal
B16 [14] = experiment: Median survival time (% T/C) after ip administration of a dose of 1 mg/kg/day in B-16 melanoma in mice; assay type: functional, Mus musculus; conditions: route intraperitoneal
B16 [15] = experiment: Median survival time (% T/C) after ip administration of a dose of 2 mg/kg/day in B-16 melanoma in mice; assay type: functional, Mus musculus; conditions: route intraperitoneal
B16 [16] = experiment: Median survival time (% T/C) after ip administration of a dose of 3 mg/kg/day in B-16 melanoma in mice; assay type: functional, Mus musculus; conditions: route intraperitoneal
B16 [17] = experiment: Average weight change after ip administration of a dose of 6 mg/kg/day in B-16 melanoma in mice; assay type: functional, Mus musculus; conditions: route intraperitoneal
B16 [18] = experiment: Tumor free survivors on 62nd day after ip administration of a dose of 4 mg/kg/day in B-16 melanoma in mice; out of 10; assay type: functional, Mus musculus; conditions: route intraperitoneal
B16 [19] = experiment: Tumor free survivors on 62nd day after ip administration of a dose of 6 mg/kg/day in B-16 melanoma in mice; out of 10; assay type: functional, Mus musculus; conditions: route intraperitoneal
B16 [20] = experiment: Median survival time (% T/C) after ip administration of a dose of 4 mg/kg/day in B-16 melanoma in mice; assay type: functional, Mus musculus; conditions: route intraperitoneal
B16 [21] = experiment: Median survival time (% T/C) after ip administration of a dose of 6 mg/kg/day in B-16 melanoma in mice; assay type: functional, Mus musculus; conditions: route intraperitoneal
B16 [22] = experiment: Tumor free survivors on 62nd day after ip administration of a dose of 4 mg/kg/day in B-16 melanoma in mice; assay type: functional, Mus musculus; conditions: route intraperitoneal
B16 [23] = experiment: Median survival time (% T/C) after ip administration of a dose of 4 mg/kg/day inB-16 melanoma in mice; assay type: functional, Mus musculus; conditions: route intraperitoneal

SMILES	T/C (P388 [1]) [%]	T/C (P388 [2]) [%]	minimal effective dose (P388 [3]) [mg/kg]	Dose (P388 [4]) [mg/kg]	E1/2 [5]	Change in WBC (P388 [6]) [%]	other results
COC12[C@@H]3N[C@@H]3CN1C1=C(C(=O)C(N3CCc4ccccc43)=C(C)C1=O)[C@@H]2COC(N)=O (some centres not stated)	150	288	0.8	12.8	–	–	–
COC12[C@@H]3N[C@@H]3CN1C1=C(C(=O)C(N(C)C)=C(C)C1=O)[C@@H]2COC(N)=O (some centres not stated)	238	325	0.2	25.6	–	–	–
COC12[C@@H]3N[C@@H]3CN1C1=C(C(=O)C(N(C)CCN(C)C)=C(C)C1=O)[C@@H]2COC(N)=O (some centres not stated)	267	211	0.8	25.6	0.33	–	–
COC12[C@@H]3N[C@@H]3CN1C1=C(C(=O)C(N3CCSCC3)=C(C)C1=O)[C@@H]2COC(N)=O (some centres not stated)	211	178	0.4	3.2	–	44	–
COC12[C@@H]3N[C@@H]3CN1C1=C(C(=O)C(N3CC3C)=C(C)C1=O)[C@@H]2COC(N)=O (some centres not stated)	233	250	0.1	3.2	0.32	24	–
COC12[C@@H]3N[C@@H]3CN1C1=C(C(=O)C(N3CCN(c4ccc(C(C)=O)cc4)CC3)=C(C)C1=O)[C@@H]2COC(N)=O (some centres not stated)	161	200	0.4	3.2	–	40	–
COC12[C@@H]3N[C@@H]3CN1C1=C(C(=O)C(N3CCC(O)C3)=C(C)C1=O)[C@@H]2COC(N)=O (some centres not stated)	163	219	0.8	25.6	0.37	–	–
COC12[C@@H]3N[C@@H]3CN1C1=C(C(=O)C(N3CCN(C)CC3)=C(C)C1=O)[C@@H]2COC(N)=O (some centres not stated)	261	183	0.2	3.2	0.24	34	–
COC12[C@@H]3N[C@@H]3CN1C1=C(C(=O)C(N3CCCCC3)=C(C)C1=O)[C@@H]2COC(N)=O (some centres not stated)	183	322	0.2	12.8	0.27	–	–
COC12[C@@H]3N[C@@H]3CN1C1=C(C(=O)C(N3CC=CC3)=C(C)C1=O)[C@@H]2COC(N)=O (some centres not stated)	216	268	0.2	12.8	–	-13	–
COC12[C@@H]3N[C@@H]3CN1C1=C(C(=O)C(N3CCN(C=O)CC3)=C(C)C1=O)[C@@H]2COC(N)=O (some centres not stated)	294	224	0.2	6.4	0.23	16	Average weight change (B16 [7]): 0 g; Average weight change (B16 [8]): -0.1 g; Average weight change (B16 [9]): -0.4 g; Average weight change (B16 [10]): -1 g; Cures (B16 [11]): 1; Cures (B16 [12]): 5; Cures (B16 [13]): 6; T/C (B16 [14]): 210%; T/C (B16 [15]): 275%; T/C (B16 [16]): 310%; Average weight change (B16 [17]): -0.7 g; Cures (B16 [18]): 6; Cures (B16 [19]): 2; T/C (B16 [20]): 310%; T/C (B16 [21]): 88%
COC12[C@@H]3N[C@@H]3CN1C1=C(C(=O)C(N3CCCC(C)C3)=C(C)C1=O)[C@@H]2COC(N)=O (some centres not stated)	238	319	0.2	25.6	–	–	–
COC12[C@@H]3N[C@@H]3CN1C1=C(C(=O)C(N3CCC(O)(O)CC3)=C(C)C1=O)[C@@H]2COC(N)=O (some centres not stated)	231	219	0.2	25.6	0.28	–	–
CO[C@@]12[C@H](COC(N)=O)C3=C(C(=O)C(C)=C(N)C3=O)N1C[C@@H]1N[C@@H]12 [MITOMYCIN]	161	–	0.2	3.2	-0.45	-42	Average weight change (B16 [7]): 0.2 g; Average weight change (B16 [8]): 0.5 g; Average weight change (B16 [9]): -0.1 g; Average weight change (B16 [10]): -0.1 g; Cures (B16 [11]): 0; Cures (B16 [12]): 0; Cures (B16 [13]): 0; Cures (B16 [22]): 0; T/C (B16 [14]): 155%; T/C (B16 [15]): 152%; T/C (B16 [16]): 165%; T/C (B16 [23]): 200%
